Results as given in US10919888B2, “Benzyl amine-containing heterocyclic compounds and compositions useful against mycobacterial infection” (priority 2015, dated 2021).

Tests used:
mice = details: mouse
Mycobacterium avium 101 = assay: In vivo efficacy in mice infected with Mycobacterium avium 101 (FIG. 2); details: dosed orally with 25 mg/kg and 100 mg/kg
Method: Panel A is the log 10 colony forming units (CFU) drop in bacteria in the lungs when treated with ND-10885 (at 25 and 100 mg/kg), rifampicin (RMP, 20 mg/kg) and a combination of ND-10885 (100 mg/kg) and rifampicin (20 mg/kg). Panel B is the log 10 colony forming units (CFU) drop in bacteria in the spleen when treated with ND-10885 (at 25 and 100 mg/kg), rifampicin (RMP, 20 mg/kg) and a combination of ND-10885 (100 mg/kg) and rifampicin (20 mg/kg). Panel C is the log 10 colony forming units (CFU) drop in bacteria in the liver when treated with ND-10885 (at 25 and 100 mg/kg), rifampicin (RMP, 20 mg/kg) and a combination of ND-10885 (100 mg/kg) and rifampicin (20 mg/kg).

in vivo = details: mouse, MTD (maximum tolerated dose)
M. avium = assay: Murine MAC infection model, two week infection in Balb/c mice; format: in vivo, Mycobacterium avium; details: two week infection experiment, control
From the text: AND CHEMOTHERAPY, 1995, 39(8), 1647-1654 for review of MAC infection model and Antimicrob Agents Chemother. 1992, 36(11):2413-7 for a typical experiment (done with clarithromycin).

Work on `Cc1ccn2c(C(=O)NCc3ccc(S(F)(F)(F)(F)F)cc3)c(C)nc2c1` yielded a melting point of 186 to 187 °C.
Work on `CCc1nc2ccc(Cl)cn2c1C(=O)NCc1ccc(S(F)(F)(F)(F)F)cc1` yielded a melting point of 191 to 192 °C.
`Cc1ccc2nc(C)c(C(=O)NCc3ccc(S(F)(F)(F)(F)F)cc3)n2c1` showed a melting point of 176 to 177 °C.
For `Cc1ccn2c(C(=O)NCc3ccc(N4CCOCC4)cc3)c(C)nc2c1` [ND-10823], the “dose limiting toxicity / in vivo toxicity” value (mice) was 100 mg/kg.
For `Cc1ccn2c(C(=O)NCc3ccc4c(c3)CCO4)c(C)nc2c1` [ND-10885], the “in vivo efficacy (log 10 CFU drop in lungs, spleen, liver)” value (Mycobacterium avium 101) was “validate the in vivo efficacy”.
`Cc1ccn2c(C(=O)NCc3ccc(N4CCCN(c5ccc(C(F)(F)F)cc5)CC4)c(F)c3)c(C)nc2c1` [ND-11598] showed an MTD (in vivo) of no less than 250 mg/kg.
For `CCc1nc2ccc(Cl)cn2c1C(=O)NCc1ccc(N2CCSCC2)c(F)c1` [ND-11622], the MTD (in vivo) was no less than 250 mg/kg.
In the case of `CO[C@H]1/C=C/O[C@@]2(C)Oc3c(C)c(O)c4c(O)c(c(/C=N/N5CCN(C)CC5)c(O)c4c3C2=O)NC(=O)/C(C)=C\C=C\[C@H](C)[C@H](O)[C@@H](C)[C@@H](O)[C@@H](C)[C@H](OC(C)=O)[C@@H]1C` [rifampicin], the “log 10 CFU drop in the amount of M. avium in the lungs” value (M. avium) is reported as 1.8 log 10 CFU.
